This note sets out measurements from patent publication US5459077A, “Methods for modelling tertiary structures of biologically active ligands and for modelling agonists and antagonists thereto” (PepMetics, Inc., priority 1993, dated 1995).

Bridge positions count the residues as written; N and C are the ends. Square brackets hold non-standard residues; d marks the D form. Peptide text beside a SMILES is read from it. Sar = CNCC(=O)O

One assay deals with rat isolated uterus. In kind it is cell-based. Conditions: for AGONIST ACTIVITY: relative to Angiotensin II = 100; for agonist / antagonist character in words: footnotes of Table I. The protocol:
^b = Agonist Activity was measured via a rat isolated uterus bioassay
as described by Matsoukas et al., J. Med. Chem., 31, pp. 1418-1421 (1988)
Results are reported relative to Angiotensin II wherein Angiotensin II =
Analogs of Angiotensin II were synthesized, purified and bioassayed by method described by Matsoukas et al., J. Med. Chem., 31, pp. 1418-1421 (1988). 1,2-propanediol [Pr(OH)2 ] was dried by refluxing over calcium oxide for 8 hours, collected by distillation and stored over a molecular sieve. Water content was estimated by ^1 H NMR or by the Karl Fisher method. Isopropanol (PrOH) was of HPLC grade (Caledon Laboratories Ltd) and was expected to contain less than 1% water. Dimethyl sulfoxide (DMSO) and trifluoroethanol (TFE) were used without further treatment. Aqueous solvents were prepared from distilled water which had been passed through Fisher ion-exchange cartridges. N-acetyl-tyrosine-amide (NAYA) was obtained from Sigma. Sodium dodecylsulfate (SDS) was obtained from BDH biochemicals (specially pure) and was used without further treatment.
[Sar^1 ]Angiotensin II was synthesized by the solid phase technique and purified to homogeneity by reversed-phase HPLC using methods described by Matsoukas et al., J. Med. Chem. 31(7), pp. 1418-1421 (1988). The synthetic peptide gave the required amino acid analysis and appeared as a single product in two thin layer chromatography (TLC) systems. [Sar^1 ]Angiotensin II had 180% of the bioactivity of Angiotensin II in the rat uterus assay which is also described by Matsoukas et al., supra. Since HPLC afforded the trifluoroacetate salt of the peptide, [Sar^1 ]Angiotensin II was neutralized by passage through a column (1.5×3 cm) of carboxymethylcellulose (Whatman CM23) cation exchange resin. The peptide (10 mg) was first applied to the column in 0.01M ammonium acetate at pH 5 (5 ml) and then eluted with 0.5M ammonium acetate at pH 8 (10 ml). The effluent obtained at pH 8 was lyophilized thrice and 5 mg of the product was dissolved in 0.5 ml of DMSO-d6 and two drops of D2 O were added. Argon was bubbled through the sample for 5 minutes before the NMR tube was sealed.

Assay [1] is described as follows: agonist activity of oxytocin analog (assay not described).

Turning to `CC[C@H](C)[C@H](NC(=O)[C@H](Cc1ccc(O)cc1)NC(=O)[C@@H](NC(=O)[C@H](CCCNC(=N)N)NC(=O)CNC)C(C)C)C(=O)N[C@@H](Cc1c[nH]cn1)C(=O)N1CCC[C@H]1C(=O)N[C@@H](Cc1ccccc1)C(N)=O` [F], the “AGONIST ACTIVITY” value in the assay with rat isolated uterus is reported as 0.2. Same read-out and setting: next, “[Tyr(Me)^4 ]Angiotensin III [B, reference compound]”: 27. `CC[C@H](C)[C@H](NC(=O)[C@H](Cc1ccc(O)cc1)NC(=O)[C@@H](NC(=O)[C@H](CCCNC(=N)N)NC(=O)CNC)C(C)C)C(=O)N[C@@H](Cc1c[nH]cn1)C(=O)N1CCC[C@H]1C(=O)N[C@@H](CC1CCCCC1)C(=O)O` [D]: in the assay with rat isolated uterus, the “agonist / antagonist character in words” value was “Potent receptor antagonist with residual agonist activity” and the “AGONIST ACTIVITY” value amounted to 4.

For the molecule `CC[C@H](C)[C@H](NC(=O)[C@H](Cc1ccc(O)cc1)NC(=O)[C@@H](NC(=O)[C@H](CCCNC(=N)N)NC(=O)CNC)C(C)C)C(=O)N[C@@H](Cc1c[nH]cn1)C(=O)N1CCC[C@@H]1C(=O)N[C@@H](Cc1ccccc1)C(=O)O` [I], the “AGONIST ACTIVITY” value with rat isolated uterus is “less than 0.1”. Regarding `CC[C@H](C)[C@H](NC(=O)[C@H](Cc1ccc(O)cc1)NC(=O)[C@@H](NC(=O)[C@H](CCCNC(=N)N)NC(=O)CNC)C(C)C)C(=O)N[C@@H](Cc1c[nH]cn1)C(=O)N1CCC[C@H]1C(=O)N[C@@H](Cc1ccccc1)C(N)=O` [Ligand F, [Sar^1 Phe--NH2^8]Angiotensin II], the “agonist / antagonist character in words” value with rat isolated uterus is listed as “lack of significant agonist activity”. Take `CC[C@H](C)[C@H](NC(=O)[C@H](Cc1ccc(O)cc1)NC(=O)[C@@H](NC(=O)[C@H](CCCNC(=N)N)NC(=O)CNC)C(C)C)C(=O)N[C@@H](C)C(=O)N1CCC[C@H]1C(=O)N[C@@H](Cc1ccccc1)C(=O)O` [G] (H-[Sar]RVYIAPF-OH): the “AGONIST ACTIVITY” value with rat isolated uterus is recorded as “less than 0.1”.

Regarding `CC[C@H](C)[C@H](NC(=O)[C@H](Cc1ccc(O)cc1)NC(=O)[C@@H](NC(=O)[C@H](CCCNC(=N)N)NC(=O)CNC)C(C)C)C(=O)N[C@@H](Cc1ccccc1)C(=O)N1CCC[C@H]1C(=O)N[C@@H](Cc1ccccc1)C(=O)O` [C] (H-[Sar]RVYIFPF-OH), the “AGONIST ACTIVITY” value in the assay on rat isolated uterus was 7. Turning to `CC[C@H](C)[C@H](NC(=O)[C@@H]1CCCN1C(=O)[C@H](Cc1c[nH]cn1)NC(=O)[C@@H](NC(=O)[C@H](Cc1ccc(O)cc1)NC(=O)[C@@H](NC(=O)[C@H](CCCNC(=N)N)NC(=O)CNC)C(C)C)[C@@H](C)CC)C(=O)O` [J], in the assay with rat isolated uterus, the “agonist / antagonist character in words” value is recorded as “Potent receptor antagonist” and the “AGONIST ACTIVITY” value was “less than 0.1”. With `CC[C@H](C)[C@H](NC(=O)[C@H](Cc1ccc(O)cc1)NC(=O)[C@@H](NC(=O)[C@@H](N)CCCNC(=N)N)C(C)C)C(=O)N[C@@H](Cc1c[nH]cn1)C(=O)N1CCC[C@H]1C(=O)N[C@@H](CC1CCCCC1)C(=O)O` [E], in the assay on rat isolated uterus, the “agonist / antagonist character in words” value is on record as “Potent receptor antagonist with residual agonist activity” and the “AGONIST ACTIVITY” value worked out at 5.

Turning to “[Sar^1 Tyr(Me)^4 ]Angiotensin II [reference compound]”, in the assay with rat isolated uterus, the “AGONIST ACTIVITY” value amounted to 100. Still for that read-out and setting: next, `CC[C@H](C)[C@H](NC(=O)[C@H](Cc1ccc(O)cc1)NC(=O)[C@@H](NC(=O)[C@@H](N)CCCNC(=N)N)C(C)C)C(=O)N[C@@H](Cc1c[nH]cn1)C(=O)N1CCC[C@H]1C(=O)N[C@@H](Cc1ccccc1)C(=O)O` [K]: 10.

As to `CC[C@H](C)[C@H](NC(=O)[C@H](Cc1ccc(O)cc1)NC(=O)[C@@H](NC(=O)[C@H](CCCNC(=N)N)NC(=O)CNC)C(C)C)C(=O)N[C@@H](Cc1c[nH]cn1)C(=O)N1CCC[C@H]1C(=O)N[C@@H](Cc1ccccc1)C(=O)O` [[Sar^1]Angiotensin II, reference compound], in the assay with rat isolated uterus (rat uterus assay), the “bioactivity relative to Angiotensin II” value amounted to 180%. Regarding `CC[C@H](C)[C@H](NC(=O)[C@H](Cc1ccc(O)cc1)NC(=O)[C@@H](NC(=O)[C@H](CCCNC(=N)N)NC(=O)CNC)C(C)C)C(=O)N[C@@H](C)C(=O)N1CCC[C@H]1C(=O)N[C@@H](Cc1ccccc1)C(=O)O` [Ligand G, [Sar^1 Ala^6]Angiotensin II] (H-[Sar]RVYIAPF-OH), the “agonist / antagonist character in words” value in the assay with rat isolated uterus is reported as “lack of significant agonist activity”. With `CC[C@H](C)[C@@H]1NC(=O)[C@H](Cc2ccc(O)cc2)NC(=O)[C@@H](N)CSSC[C@@H](C(=O)N2CCC[C@H]2C(=O)N[C@@H](CC(C)C)C(=O)NCC(N)=O)NC(=O)[C@H](C)NC(=O)[C@H](CCC(N)=O)NC1=O` [[Ala^5]] (H-CYIQACPLG-NH2; disulfide 1-6), in assay [1], the “agonist activity in words” value is recorded as “no agonist activity”.
